Data from US10980889B1 (Revolution Medicines, Inc., priority 2018, dated 2021).

Experiments:
Conditions in all cases: AlphaLisa, two to four hours at 37° C.
[1] = tested on: P-Akt (S473); test: Cell based AlphaLISA assay, inhibition of P-Akt (S473) in MDA-MB-468 cells (mTORC2 substrate)
Protocol: (§1) Cell Based AlphaLISA Assays For Determining IC50 For Inhibition of P-Akt (S473), P-4E-BP1(T37/46), and P-P70S6K (T389) in MDA-MB-468 Cells
(§2) mTOR Kinase Cellular Assay
(§3) To measure functional activity of mTORC1 and mTORC2 in cells the phosphorylation of 4EBPT (Thr37/46) and P70S6K (Thr389), and AKT1/2/3 (Ser473) was monitored using AlphaLisa SureFire Ultra Kits (Perkin Elmer). […] Incubations were terminated by removal of the assay buffer and addition of lysis buffer provided with the assay kit. Samples were processed according to the manufacturer's instructions. The Alpha signal from the respective phosphoproteinswas measured in duplicate using a microplate reader (Envision, Perkin-Elmer or Spectramax M5, Molecular Devices). Inhibitor concentration response curves were analyzed using normalized IC50 regression curve filling with control based normalization.

[2] = tested on: P-P70S6K (T389); test: Cell based AlphaLISA assay, inhibition of P-P70S6K (T389) in MDA-MB-468 cells (mTORC1 substrate)
Protocol: as §1, §2, §3

[3] = tested on: P-4E-BP1 (T37/46); test: Cell based AlphaLISA assay, inhibition of P-4E-BP1 (T37/46) in MDA-MB-468 cells (mTORC1 substrate)
Protocol: as §1, §2, §3

## CO[C@H]1C[C@@H]2CC[C@@H](C)[C@@](O)(O2)C(=O)C(=O)N2CCCC[C@H]2C(=O)O[C@H]([C@H](C)C[C@@H]2CC[C@@H](OC(=S)NCCOCCOCCOCCOCCOCCOCCOCCOCCC(=O)N3CCc4cc(Cn5nc(-c6ccc7oc(N)nc7c6)c6c(N)ncnc65)ccc4C3)[C@H](OC)C2)C[C@@H](O)[C@H](C)/C=C(\C)[C@@H](O)[C@@H](OC)C(=O)[C@H](C)C[C@H](C)/C=C/C=C/C=C/1C [Example 77]
[1]
  pIC50 for Inhibition of mTORC1 and mTORC2 Substrate Phosphorylation p-AKT1/2/3-(S473): + (7.5 > pIC50 ≥ 6.0)
[2]
  pIC50 for Inhibition of mTORC1 and mTORC2 Substrate Phosphorylation p-P70S6K-(T389): +++ (≥9)
[3]
  pIC50 for Inhibition of mTORC1 and mTORC2 Substrate Phosphorylation P-4E-BP1-(T37/46): ++ (8.5 > pIC50 ≥ 7.5)

## CO[C@H]1C[C@@H]2CC[C@@H](C)[C@@](O)(O2)C(=O)C(=O)N2CCCC[C@H]2C(=O)O[C@H]([C@H](C)C[C@@H]2CC[C@@H](OC(=S)NCCOCCOCCOCCOCCOCCOCCOCCOCCC(=O)N3CCc4cc(Cn5nc(-c6ccc7oc(N)nc7c6)c6c(N)ncnc65)ccc4C3)[C@H](OC)C2)C[C@@H](OC)[C@H](C)/C=C(\C)[C@@H](O)[C@@H](OC)C(=O)[C@H](C)C[C@H](C)/C=C/C=C/C=C/1C [Example 78]
[1]
  pIC50 for Inhibition of mTORC1 and mTORC2 Substrate Phosphorylation p-AKT1/2/3-(S473): +++ (≥8.5)
[2]
  pIC50 for Inhibition of mTORC1 and mTORC2 Substrate Phosphorylation p-P70S6K-(T389): +++ (≥9)
[3]
  pIC50 for Inhibition of mTORC1 and mTORC2 Substrate Phosphorylation P-4E-BP1-(T37/46): +++ (≥8.5)

## CO[C@H]1C[C@@H]2CC[C@@H](C)[C@@](O)(O2)C(=O)C(=O)N2CCCC[C@H]2C(=O)O[C@H]([C@H](C)C[C@@H]2CC[C@@H](OC(=O)NCCOCCOCCOCCOCCOCCOCCOCCOCCC(=O)NCc3ccc(Cn4nc(-c5ccc6oc(N)nc6c5)c5c(N)ncnc54)cc3)[C@H](OC)C2)CC(=O)[C@H](C)/C=C(\C)[C@@H](O)[C@@H](OC)C(=O)[C@H](C)C[C@H](C)/C=C/C=C/C=C/1C [Example 79]
[1]
  pIC50 for Inhibition of mTORC1 and mTORC2 Substrate Phosphorylation p-AKT1/2/3-(S473): + (7.5 > pIC50 ≥ 6.0)
[2]
  pIC50 for Inhibition of mTORC1 and mTORC2 Substrate Phosphorylation p-P70S6K-(T389): +++ (≥9)
[3]
  pIC50 for Inhibition of mTORC1 and mTORC2 Substrate Phosphorylation P-4E-BP1-(T37/46): +++ (≥8.5)

## CO[C@H]1C[C@@H]2CC[C@@H](C)[C@@](O)(O2)C(=O)C(=O)N2CCCC[C@H]2C(=O)O[C@H]([C@H](C)C[C@@H]2CC[C@@H](OC(=O)NCCOCCOCCOCCOCCOCCOCCOCCOCCC(=O)NCc3ccc(Cn4nc(-c5ccc6oc(N)nc6c5)c5c(N)ncnc54)cc3)[C@H](OC)C2)C[C@@H](OC)[C@H](C)/C=C(\C)[C@@H](O)[C@@H](OC)C(=O)[C@H](C)C[C@H](C)/C=C/C=C/C=C/1C [Example 81]
[1]
  pIC50 for Inhibition of mTORC1 and mTORC2 Substrate Phosphorylation p-AKT1/2/3-(S473): − (<6)
[2]
  pIC50 for Inhibition of mTORC1 and mTORC2 Substrate Phosphorylation p-P70S6K-(T389): +++ (≥9)
[3]
  pIC50 for Inhibition of mTORC1 and mTORC2 Substrate Phosphorylation P-4E-BP1-(T37/46): ++ (8.5 > pIC50 ≥ 7.5)

## CO[C@H]1C[C@@H]2CC[C@@H](C)[C@@](O)(O2)C(=O)C(=O)N2CCCC[C@H]2C(=O)O[C@H]([C@H](C)C[C@@H]2CC[C@@H](OC(=O)NCCOCCOCCOCCOCCOCCOCCOCCOCCC(=O)NCc3ccc(Cn4nc(-c5ccc6oc(N)nc6c5)c5c(N)ncnc54)cc3)[C@H](OC)C2)C[C@H](N=[N+]=[N-])[C@H](C)/C=C(\C)[C@@H](O)[C@@H](OC)C(=O)[C@H](C)C[C@H](C)/C=C/C=C/C=C/1C [Example 82]
[1]
  pIC50 for Inhibition of mTORC1 and mTORC2 Substrate Phosphorylation p-AKT1/2/3-(S473): − (<6)
[2]
  pIC50 for Inhibition of mTORC1 and mTORC2 Substrate Phosphorylation p-P70S6K-(T389): +++ (≥9)
[3]
  pIC50 for Inhibition of mTORC1 and mTORC2 Substrate Phosphorylation P-4E-BP1-(T37/46): +++ (≥8.5)

## CO[C@H]1C[C@@H]2CC[C@@H](C)[C@@](O)(O2)C(=O)C(=O)N2CCCC[C@H]2C(=O)O[C@H]([C@H](C)C[C@@H]2CC[C@@H](OC(=S)NCCOCCOCCOCCOCCOCCOCCOCCOCCC(=O)NCc3ccc(Cn4nc(-c5ccc6oc(N)nc6c5)c5c(N)ncnc54)cc3)[C@H](OC)C2)C[C@@H](O)[C@H](C)/C=C(\C)[C@@H](O)[C@@H](OC)C(=O)[C@H](C)C[C@H](C)/C=C/C=C/C=C/1C [Example 83]
[1]
  pIC50 for Inhibition of mTORC1 and mTORC2 Substrate Phosphorylation p-AKT1/2/3-(S473): ++ (8.5 > pIC50 ≥ 7.5)
[2]
  pIC50 for Inhibition of mTORC1 and mTORC2 Substrate Phosphorylation p-P70S6K-(T389): +++ (≥9)
[3]
  pIC50 for Inhibition of mTORC1 and mTORC2 Substrate Phosphorylation P-4E-BP1-(T37/46): +++ (≥8.5)

## CO[C@H]1C[C@@H]2CC[C@@H](C)[C@@](O)(O2)C(=O)C(=O)N2CCCC[C@H]2C(=O)O[C@H]([C@H](C)C[C@@H]2CC[C@@H](OC(=O)NCc3cnc(N4CCN(c5ncc(C(=O)NCCOCCOCCOCCOCCC(=O)N6CCc7cc(Cn8nc(-c9cnc%10[nH]ccc%10c9)c9c(N)ncnc98)ccc7C6)cn5)CC4CO)nc3)[C@H](OC)C2)CC(=O)[C@H](C)/C=C(\C)[C@@H](O)[C@@H](OC)C(=O)[C@H](C)C[C@H](C)/C=C/C=C/C=C/1C (stereo partly drawn) [Example 86]
[1]; Homo sapiens, 4 h, read-out: pIC50 for Inhibition of mTORC1 and mTORC2 Substrate Phosphorylation p-AKT1/2/3-(S473) (converted)
  IC50: 3.16 to 31.6 nM
[2]; Homo sapiens, 4 h, read-out: pIC50 for Inhibition of mTORC1 and mTORC2 Substrate Phosphorylation p-P70S6K-(T389) (converted)
  IC50: < 1 nM
[3]; Homo sapiens, 4 h, read-out: pIC50 for Inhibition of mTORC1 and mTORC2 Substrate Phosphorylation P-4E-BP1-(T37/46) (converted)
  IC50: < 3.16 nM
